The conditions of data set [1]: FIG. 16, n=2.
Data set [2] in a line: Pharmacokinetics of THC aerosol by inhalation in Beagle dogs. It counts as in vivo. The note with it: for Cmax / Tmax / half-life: plasma (venous); for Cmax / Tmax / half-life / AUC(0-inf): 0.93 mg, inhalation 0.93 mg THC + 0.11 THCA, venous plasma THC; for Fraction of THC Emitted Dose in Exhalation: based on 924 μg THC emitted dose; for BA: inhalation vs IV; for THC in Exhaled Breath: 5 sec breath hold; for time of maximum arterial plasma concentration: arterial blood, FIG. 14; for time of venous plasma concentration peak: venous blood, FIG. 15. Here is the method:
A study was conducted in order to compare the pharmacokinetics (PK) of delivering THC by inhalation from a thermally labile prodrug to those of an intravenous (IV) bolus. A device consisting of a control electronics PC board, air-flow regulator, inhalation valve, air-flow meter, and indo-tracheal tube was used to generate and administer THC aerosol to Beagle dogs. Two safety mechanisms built into the device prevent harm to the test subject: one that closes the inhalation valve when the selected air volume is delivered to the test subject, and one that vents the system to ambient air if the circuit board loses control over the system (due to power failure, etc.).
The in vivo portion of the study was designed with a target THC emitted dose of 0.98 mg. Aerosol quality samples were captured prior to and immediately following animal dosing in a manner consistent with previous pre-PK development work and the animal dosing parameters. The emitted dose samples were collected on 2 μm Teflon filters, while the particle size samples were collected using an ACI fitted with glass fiber filters. After aerosol collection, the filters were stored in amber vials in a freezer prior to analysis. All results were within the acceptable range determined from a previous development study.
For the inhalation portion, four Beagle dogs (2 male/2 female) were exposed to THC aerosol by forced maneuver inhalation exposure. A breath hold of 5 sec was followed by exhalation into a Teflon filter. The filters were placed in vials for analysis using HPLC. Body weight, inhalation volume, exhalation volume, and quantity of THC in exhalation for each test subject are set forth in Table Three, below.
(§1) All blood samples measured 0.5 mL and were collected in plastic vials containing K2EDTA as the anticoagulant. The vials were placed on wet ice until centrifugation to recover the plasma. The plasma samples were analyzed for THC, THCA, and the major metabolite (11-nor-9-carboxy-Δ^9-tetrahydrocannabinol) of THC using a mass spectrometry method.
Immediately after simultaneous administration of the drug and the prodrug, blood samples were drawn from both the arterial and venous circulation of the test subjects. Arterial sampling was more frequent at the early time points and was stopped at 10 minutes, while venous sampling continued to 24 hours.
(§2) Non-compartmental modeling of the venous THC plasma concentrations was performed using WinNonlin™ (WinNonlin Professional Version 4.1, Pharsight Corp., Mountain View, Calif.). Characterization of the gamma (third) terminal linear phase for the inhalation and IV portions of the study allowed us to compare the inhalation pharmacokinetics to those of IV.

Data set [3] can be described thus: Pharmacokinetics of THC IV bolus in Beagle dogs. The data set is classed as in vivo. Particulars: dog, venous plasma, 0.9 mg, IV injection 0.9 mg THC. As to the method: Two weeks after dosing by inhalation, the same dogs were given a 0.9 mL (adjusted to match the aerosol output measured in the pre- and post-dose aerosol quality testing) bolus IV injection of THC (1 mg/mL THC and sodium ascorbate) in 0.9% NaCl aqueous solution.
as §1, §2

For data set [4] the following is noted: oral dronabinol formulations of THC, cited from earlier work.
Data set [5] can be described thus: Physical stability drop tests of THCA coatings. The data set is classed as physicochemical. Particulars: up to 1.0 mg/cm^2 on stainless steel, after 6 months storage at various conditions. The text has this:
An advantage of THCA is that it is a solid that forms a physically stable film, as opposed to Δ^9-THC, which is a viscous oil whose coated films are subject to flow.

Data set [6] can be described thus: Aerosol particle size by Anderson Cascade Impactor. The note with it: THC aerosol from THCA film, 1 mg/cm^2, aerosol mass 1 mg, 28.3 L/min. It counts as physicochemical. As to the method:
Particle size distribution is characterized by the mass median aerodynamic diameter (MMAD) and the geometric standard deviation (GSD). For thermal condensation aerosols, such as those disclosed herein and in our previous patent applications, particle size is governed by the competing mechanisms of condensation and Brownian aggregation.
All particle size experiments were conducted by vaporizing drug films into an 8-stage Anderson Cascade Impactor (ACI) fitted with a glass fiber filter. The ACI consists of several stages, with each successive stage having a smaller size cutoff. By extracting and determining the mass of drug deposited at each stage, it is possible to estimate the particle size distribution of the aerosol.
An air flow of 28.3 L/min was used to generate the aerosol and distribute it through the ACI. Each stage and filter was extracted with organic solvent and analyzed using HPLC. The MMAD and GSD were calculated from the quantity of aerosol on each stage. The MMAD for the THC aerosol (generated from THCA film, drug loading=1 mg/cm^2; aerosol mass=1 mg) was 2.2 μm and the GSD [84/16] was 2.2. In addition, the fine particle fraction (FPF, MMAD <5 μm) was over 95%. These values are well within the range normally accepted for effective pulmonary deposition.

Data set [7] in a line: Aerosolization of estradiol-t-BOC-Gly-Gly. The data set is classed as physicochemical. As to the method: The prodrug, estradiol-t-BOC-Gly-Gly (shown in FIG. 12 and prepared as described above), was spray coated onto stainless steel test strips (1.347 mg; […] nominal film thickness). The test articles were placed in the screening device and heated by discharging a capacitor through the foils to thermally convert the prodrug back to estradiol and form a condensation aerosol. Tests were conducted on duplicate foils at each of three temperatures (325° C., 350° C., and 380° C.) determined by the discharge voltage of the capacitor. The aerosol was collected with a Teflon filter, and the trapped aerosol was extracted from the collection apparatus using organic solvent and analyzed using HPLC.
FIG. 17 is a bar graph 1700 showing percent estradiol in aerosol 1702 as a function of vaporization temperature 1704 (n=2). FIG. 18 is a bar graph 1800 showing percent prodrug in aerosol 1802 as a function of vaporization temperature 1804 (n=2).

[8] abbreviates: Beagle, dog, inhaled or intranasal, subject 101.
Where [9] appears, read: Beagle, dog, inhaled or intranasal, subject 102.
The mark [10] stands for this setting: Beagle, dog, inhaled or intranasal, subject 103.
The mark [11] stands for this setting: Beagle, dog, inhaled or intranasal, subject 104.
[12] abbreviates: both sexes, Beagle, dog, inhaled or intranasal, mean of 4 dogs.

Each structure is given as a SMILES string. Where two headings read alike, the source gives them in different places.

As for `CC(C)c1cccc(C(C)C)c1OC(=O)OC(C)(C)C` [Propofol-t-BOC-Ester, O-(t-butoxycarbonyl)-propofol], in data set [1], the “aerosol purity of propofol as a function of vaporization temperature” value is on record as “decrease with increasing vaporization temperature”.
The term Cmax denotes the highest concentration seen after dosing. Usually Tmax stands for the time from dosing to the highest level. What is called half-life is the time in which the quantity being followed falls by half. Broadly, the AUC(0-inf) is the area under the concentration-time curve extrapolated to infinity. A word on the bioavailability: it is the share of a dose that reaches the circulation, judged against a reference dose that is usually intravenous. Consider `CCCCCc1cc(O)c2c(c1)OC(C)(C)[C@@H]1CCC(C)=C[C@@H]21` [THC, Δ^9-tetrahydrocannabinol], for which the Cmax was 341 ng/mL in data set [2] (setting [8]); 190 ng/mL in data set [2] (setting [9]); 358 ng/mL in data set [2] (setting [10]); 253 ng/mL in data set [2] (setting [11]); 286 ng/mL in data set [2] (setting [12]); 1780 ng/mL in data set [3] (both sexes, mean of 4 dogs). Also, the Cmax in data set [3] (female, subject 103) amounted to 1410 ng/mL; in data set [3] (female, subject 104) it was 1230 ng/mL; in data set [3] (male, subject 101), 3770 ng/mL; in data set [3] (male, subject 102) it was 697 ng/mL. In addition, the time to peak (Tmax) in data set [2] (setting [8]) was 3 min; in data set [2] (setting [9]), 2 min; in data set [2] (setting [10]), 2 min; in data set [2] (setting [11]) it was 2 min; in data set [2] (setting [12]) it was 2.3 min; in data set [3] (both sexes, mean of 4 dogs), 0.38 min. The Tmax in data set [3] (female, subject 103) is 0.25 min; in data set [3] (female, subject 104), 0.5 min; in data set [3] (male, subject 101) it was 0.25 min; in data set [3] (male, subject 102), 0.5 min; in data set [4], “up to 5 hours”. For the same compound, the half-life in data set [2] (setting [8]) was 21 min; in data set [2] (setting [9]) it was 32.5 min; in data set [2] (setting [10]), 22.7 min; in data set [2] (setting [11]), 55.8 min; in data set [2] (setting [12]) it was 33 min; in data set [3] (both sexes, mean of 4 dogs) it was 50.8 min. The half-life in data set [3] (female, subject 103) amounted to 51.3 min; in data set [3] (female, subject 104) it was 36.6 min; in data set [3] (male, subject 101) it was 18.1 min; in data set [3] (male, subject 102), 97.1 min. Besides, the “Fraction of THC Emitted Dose in Exhalation” value in data set [2] (subject 101) is 2.8%; in data set [2] (subject 102) it was 3.2%; in data set [2] (subject 103) it was 2.4%; in data set [2] (subject 104), 1.7%. For the same compound, the total exposure AUC(0-inf) is 92.5 ng·h/mL in data set [2] (both sexes, Beagle, dog, venous plasma, inhaled or intranasal, mean of 4 dogs); 1140 ng·h/mL in data set [2] (female, Beagle, dog, venous plasma, inhaled or intranasal, subject 103); 92.6 ng·h/mL in data set [2] (female, Beagle, dog, venous plasma, inhaled or intranasal, subject 104); 99.4 ng·h/mL in data set [2] (male, Beagle, dog, venous plasma, inhaled or intranasal, subject 101); 64.5 ng·h/mL in data set [2] (male, Beagle, dog, venous plasma, inhaled or intranasal, subject 102); 142 ng·h/mL in data set [3] (both sexes, mean of 4 dogs). Besides, the total exposure AUC(0-inf) in data set [3] (female, subject 103) is 139 ng·h/mL; in data set [3] (female, subject 104), 118 ng·h/mL; in data set [3] (male, subject 101), 164 ng·h/mL; in data set [3] (male, subject 102), 146 ng·h/mL. The bioavailability in data set [2] (both sexes, Beagle, dog, venous plasma, inhaled or intranasal, inhalation) was 67%; in data set [4] (typical), “less than 50%”. For the same compound, the “difference in Tmax between THC and its prodrug Δ^9-THC-2-carboxylic acid” value in data set [2] (inhalation) is recorded as 3 fold. In addition, the BA in data set [2] (mean of 4 dogs) is on record as 67.4%; in data set [2] (subject 101), 59.7%; in data set [2] (subject 102) it was 43.9%; in data set [2] (subject 103), 84.5%; in data set [2] (subject 104) it was 81.6%. Further, the “THC in Exhaled Breath” value stood at 26.2 µg in data set [2] (inhalation, subject 101 (M)); 29.6 µg in data set [2] (inhalation, subject 102 (M)); 22.3 µg in data set [2] (inhalation, subject 103 (F)); 15.8 µg in data set [2] (inhalation, subject 104 (F)). In addition, the “time of maximum arterial plasma concentration” value in data set [2] (inhalation) came to 90 s. Also, the “time of venous plasma concentration peak” value in data set [2] (inhalation) is “about 150 seconds”.
For `CCCCCc1cc2c(c(O)c1C(=O)O)C1C=C(C)CCC1C(C)(C)O2` (stereo not shown) [THCA, Δ^9-THC-2-carboxylic acid], the “physical stability of coating (drop tests)” value in data set [5] is “physically robust”. Besides, in data set [6], the “GSD [84/16]” value was 2.2; the MMAD stood at 2.2 μm; the “fine particle fraction (FPF, MMAD <5 μm)” value is “over 95%”. Also, the “absorption from the lung compared with THC” value in data set [2] (inhalation, FIGS. 14 and 15) is listed as “substantially faster”. In addition, in data set [2] (inhalation), the “time of maximum arterial plasma concentration” value is given as “about 30 seconds” and the “time of venous plasma concentration peak” value was “about 50 seconds”.
Turning to `CC(C)(C)OC(=O)NCC(=O)NCC(=O)Oc1ccc2c(c1)CC[C@@H]1[C@@H]2CC[C@]2(C)[C@@H](O)CC[C@@H]12` [estradiol-t-BOC-Gly-Gly, 3-(t-butoxycarbonyl-glycinyl-glycinate)-estradiol], the estradiol in aerosol result in data set [7] (325° C., 350° C., and 380° C., n=2, FIG. 17) was “approximately 94%”. In data set [7] (325° C., 350° C., and 380° C., n=2, FIG. 18), the “unconverted prodrug in captured aerosol” value is 1.5-2%. In data set [7] (empirical studies), the “thermal conversion of the precursor to estradiol” value is “up to 95%”.

(Values after patent publication US20080306285A1, “Heat-Labile Prodrugs” (priority 2007, published 2008).)
